Details: 1008.1 K; Crystal; Closed cell (Static) method

For `O=C([O-])[O-].[Li+].[Li+]` [lithium carbonate], the “vapor or sublimation pressure” value was 1.552 kPa.

— the NIST ThermoML archive (doi:10.1021/acs.jced.6b00043)
